According to US10392368B2, “Pyrazolo and triazolo bicyclic compounds as JAK kinase inhibitors” (THERAVANCE BIOPHARMA R&D IP, LLC, priority 2017, dated 2019):
Read-outs that look alike come from different tables or passages of the source.

How the values were obtained:
[1] = target: T1, JAK2 (Homo sapiens, UniProt O60674); test: Biochemical JAK2 kinase assay (LanthaScreen)
T1 construct: GST; purchased Life Technologies
Method: A panel of four LanthaScreen JAK biochemical assays (JAK1, 2, 3 and Tyk2) were carried in a common kinase reaction buffer (50 mM HEPES, pH 7.5, 0.01% Brij-35, 10 mM MgCl2, and 1 mM EGTA). Recombinant GST-tagged JAK enzymes and a GFP-tagged STAT1 peptide substrate were obtained from Life Technologies.
Serially or discretely diluted compounds were pre-incubated with each of the four JAK enzymes and the substrate in white 384-well microplates (Corning) at ambient temperature for 1 h. ATP was subsequently added to initiate the kinase reactions in 10 μL total volume, with 1% DMSO. […] Kinase reactions were allowed to proceed for 1 hour at ambient temperature before a 10 μL preparation of EDTA (10 mM final concentration) and Tb-anti-pSTAT1 (pTyr701) antibody (Life Technologies, 2 nM final concentration) in TR-FRET dilution buffer (Life Technologies) was added. The plates were allowed to incubate at ambient temperature for 1 h before being read on the EnVision reader (Perkin Elmer).
For dose-response analysis, percent inhibition data were plotted vs. compound concentrations, and IC50 values were determined from a 4-parameter robust fit model with the Prism software (GraphPad Software). Results were expressed as pIC50 (negative logarithm of IC50) and subsequently converted to pKi (negative logarithm of dissociation constant, Ki) using the Cheng-Prusoff equation.

[2] = target: T2, JAK3 (Homo sapiens, UniProt P52333); test: Biochemical JAK3 kinase assay (LanthaScreen); design: GST; purchased Life Technologies; conditions: for Ki: read-out: JAK 3 (pKi) (converted)
T2 sequence (P52333 1-1124): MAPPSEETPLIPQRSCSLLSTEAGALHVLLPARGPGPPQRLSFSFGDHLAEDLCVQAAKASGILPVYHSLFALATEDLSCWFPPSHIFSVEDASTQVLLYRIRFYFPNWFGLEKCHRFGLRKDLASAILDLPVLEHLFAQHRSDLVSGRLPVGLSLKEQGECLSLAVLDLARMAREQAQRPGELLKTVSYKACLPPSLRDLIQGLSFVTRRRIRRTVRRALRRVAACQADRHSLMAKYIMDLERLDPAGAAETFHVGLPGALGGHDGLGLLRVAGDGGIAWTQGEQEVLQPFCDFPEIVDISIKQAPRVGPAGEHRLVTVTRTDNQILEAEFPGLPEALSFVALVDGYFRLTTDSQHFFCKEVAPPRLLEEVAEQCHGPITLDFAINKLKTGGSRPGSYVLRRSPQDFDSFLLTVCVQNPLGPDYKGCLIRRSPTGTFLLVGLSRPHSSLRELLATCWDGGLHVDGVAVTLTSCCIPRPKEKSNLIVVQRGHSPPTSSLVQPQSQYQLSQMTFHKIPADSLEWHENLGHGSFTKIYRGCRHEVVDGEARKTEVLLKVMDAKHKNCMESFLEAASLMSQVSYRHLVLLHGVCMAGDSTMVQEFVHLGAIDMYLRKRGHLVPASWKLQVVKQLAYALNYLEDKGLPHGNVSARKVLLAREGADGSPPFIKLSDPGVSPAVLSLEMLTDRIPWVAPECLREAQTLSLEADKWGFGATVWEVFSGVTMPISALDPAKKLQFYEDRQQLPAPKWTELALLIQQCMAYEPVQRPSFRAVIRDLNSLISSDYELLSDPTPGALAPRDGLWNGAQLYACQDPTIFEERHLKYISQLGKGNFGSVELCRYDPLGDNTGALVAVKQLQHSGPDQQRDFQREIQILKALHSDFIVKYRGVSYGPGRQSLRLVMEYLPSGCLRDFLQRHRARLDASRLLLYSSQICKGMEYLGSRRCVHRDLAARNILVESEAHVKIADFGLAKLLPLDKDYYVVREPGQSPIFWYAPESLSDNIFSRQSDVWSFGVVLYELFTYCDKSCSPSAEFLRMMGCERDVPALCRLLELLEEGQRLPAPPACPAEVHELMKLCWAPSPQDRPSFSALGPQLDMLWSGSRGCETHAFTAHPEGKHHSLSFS
Summary of the method: (§1)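 Compounds were preincubated with the GST-tagged kinase and GFP-labelled STAT1 peptide for one hour before ATP initiated a one-hour reaction at ambient temperature. Phosphorylation was quantified by TR-FRET with a Tb-labelled pTyr701 antibody. Ki values were derived from IC50 using Cheng-Prusoff.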

[3] = target: T3, JAK1 (Homo sapiens, UniProt P23458); test: Biochemical JAK1 kinase assay (LanthaScreen); conditions: for Ki: read-out: JAK 1 (pKi) (converted)
T3 construct: GST; purchased Life Technologies
T3 sequence (P23458 whole entry): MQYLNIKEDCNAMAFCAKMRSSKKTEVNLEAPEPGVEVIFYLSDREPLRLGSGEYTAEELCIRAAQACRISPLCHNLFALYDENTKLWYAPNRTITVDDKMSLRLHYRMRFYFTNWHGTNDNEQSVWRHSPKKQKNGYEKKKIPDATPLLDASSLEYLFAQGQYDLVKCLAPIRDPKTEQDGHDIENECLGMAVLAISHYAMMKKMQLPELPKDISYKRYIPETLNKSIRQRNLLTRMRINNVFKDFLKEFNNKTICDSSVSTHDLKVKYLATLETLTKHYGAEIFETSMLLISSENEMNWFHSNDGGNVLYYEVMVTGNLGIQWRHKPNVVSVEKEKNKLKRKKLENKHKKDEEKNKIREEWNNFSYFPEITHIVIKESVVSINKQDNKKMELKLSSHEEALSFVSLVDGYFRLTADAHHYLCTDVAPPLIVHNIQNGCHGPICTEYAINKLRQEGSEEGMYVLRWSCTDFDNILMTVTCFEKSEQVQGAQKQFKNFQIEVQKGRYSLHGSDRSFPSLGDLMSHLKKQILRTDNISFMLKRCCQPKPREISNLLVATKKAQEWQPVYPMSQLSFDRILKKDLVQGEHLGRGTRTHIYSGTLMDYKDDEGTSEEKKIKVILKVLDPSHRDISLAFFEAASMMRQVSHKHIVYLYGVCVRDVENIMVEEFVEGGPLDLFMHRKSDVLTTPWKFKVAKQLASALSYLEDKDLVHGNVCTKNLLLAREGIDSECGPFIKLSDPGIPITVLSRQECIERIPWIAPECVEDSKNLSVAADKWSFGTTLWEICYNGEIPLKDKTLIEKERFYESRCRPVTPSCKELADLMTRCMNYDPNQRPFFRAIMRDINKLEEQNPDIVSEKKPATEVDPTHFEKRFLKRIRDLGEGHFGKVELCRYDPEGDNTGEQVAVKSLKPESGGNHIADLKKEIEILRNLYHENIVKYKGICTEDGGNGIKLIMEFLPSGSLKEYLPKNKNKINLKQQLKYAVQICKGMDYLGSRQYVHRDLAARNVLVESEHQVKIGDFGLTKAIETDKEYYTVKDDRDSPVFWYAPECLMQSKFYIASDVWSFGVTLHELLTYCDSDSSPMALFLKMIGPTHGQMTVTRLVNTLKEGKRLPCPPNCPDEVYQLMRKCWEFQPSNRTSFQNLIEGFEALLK
Summary of the method: as §1

[4] = system: IL-2 stimulated pSTAT5 in Tall-1 T cells; test: Cellular JAK3 potency assay: inhibition of IL-2 stimulated pSTAT5 in Tall-1 T cells; format: cell-based, human; conditions: for IC50: Homo sapiens, read-out: Tall-1 (pIC50) (converted)
Summary of the method: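 Tall-1 human T cells (45,000/well) in phenol red-free DMEM with 10% FBS were preincubated with compound 1 h at 37 °C, then stimulated with IL-2 (final 300 ng/ml) for 30 min. Lysate pSTAT5 read by AlphaLisa; IC50 from inhibition curves, reported as pIC50 (mean±SD).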

[5] = selectivity: difference of pKi JAK3 and pKi JAK1
[6] = IL-2 stimulated pSTAT5, Tall-1 T cells
[7] = selectivity JAK3 over JAK1, difference of pKi
[8] = TALL-1, IL-2 stimulated pSTAT5, Tall-1 T cells
[9] = TALL-1, IL-2 stimulated pSTAT5 in Tall-1 T cells
[10] = IL-2 stimulated pSTAT5 in Tall-1 T cells

T1 sequence (O60674 whole entry): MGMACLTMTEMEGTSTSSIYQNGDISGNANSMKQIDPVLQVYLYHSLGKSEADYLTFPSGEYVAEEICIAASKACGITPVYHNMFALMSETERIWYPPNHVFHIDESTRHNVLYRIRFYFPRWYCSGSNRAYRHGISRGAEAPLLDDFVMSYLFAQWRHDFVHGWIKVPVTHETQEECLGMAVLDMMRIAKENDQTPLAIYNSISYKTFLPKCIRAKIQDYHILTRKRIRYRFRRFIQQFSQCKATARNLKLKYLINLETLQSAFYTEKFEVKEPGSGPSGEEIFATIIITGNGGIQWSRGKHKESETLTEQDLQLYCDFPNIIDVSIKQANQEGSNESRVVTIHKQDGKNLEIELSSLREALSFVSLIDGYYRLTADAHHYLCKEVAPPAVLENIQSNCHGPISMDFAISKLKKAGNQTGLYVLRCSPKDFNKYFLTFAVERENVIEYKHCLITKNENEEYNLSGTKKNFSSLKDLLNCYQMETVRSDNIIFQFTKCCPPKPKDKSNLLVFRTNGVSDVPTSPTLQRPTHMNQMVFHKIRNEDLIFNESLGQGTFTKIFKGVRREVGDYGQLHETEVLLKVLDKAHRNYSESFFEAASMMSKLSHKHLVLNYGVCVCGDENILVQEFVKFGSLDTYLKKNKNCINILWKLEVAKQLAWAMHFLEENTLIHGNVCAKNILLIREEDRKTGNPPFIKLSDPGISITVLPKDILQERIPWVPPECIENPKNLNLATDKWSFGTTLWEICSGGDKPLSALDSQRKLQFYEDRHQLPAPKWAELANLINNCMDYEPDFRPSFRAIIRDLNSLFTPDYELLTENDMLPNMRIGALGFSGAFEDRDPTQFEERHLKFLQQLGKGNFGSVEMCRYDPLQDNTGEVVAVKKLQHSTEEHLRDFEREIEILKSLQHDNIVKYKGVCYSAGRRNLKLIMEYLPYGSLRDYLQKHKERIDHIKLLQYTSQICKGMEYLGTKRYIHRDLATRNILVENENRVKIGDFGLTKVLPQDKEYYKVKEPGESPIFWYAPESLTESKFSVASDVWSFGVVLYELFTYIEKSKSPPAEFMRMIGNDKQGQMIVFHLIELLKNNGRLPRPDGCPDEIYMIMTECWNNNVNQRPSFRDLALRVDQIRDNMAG

| SMILES | JAK 2 (pKi) [1] | JAK 3 (pKi) [2] | JAK3 (pKi)-JAK1 (pKi) [2, 5] | JAK 1 (pKi) [3] | Tall-1 (pIC50) [4, 6] | JAK3 (pKi)-JAK1 (pKi) [2, 7] | Ki [3] | IC50 [4, 8] | Ki [2] | IC50 [4, 9] | Tall-1 (pIC50) [4, 10] |
| --- | --- | --- | --- | --- | --- | --- | --- | --- | --- | --- | --- |
| C=CC(=O)N1CC(C(C)Oc2nc(-c3ccc(O)cc3)nc3[nH]ncc23)C1 (stereo not drawn) [Compound 3-78] | E (a pKi value of 7 or below (Ki of 100 nM or above)) | B (a pKi value between 9 and 10 (Ki between 1 nM and 0.1 nM)) | A (a value of 3 or above) | – | – | – | – | – | – | – | – |
| CN(C)CC=CC(=O)N1C2CCC1CC(Oc1cc(-c3ccc(O)c(Cl)c3)cc3[nH]ncc13)C2 (stereo not drawn) [Compound 9-3] | – | B (a pKi value between 9 and 10 (Ki between 1 nM and 0.1 nM)) | – | E (a pKi value of 7 or below (Ki of 100 nM or above)) | C (a pIC50 value between 6 and 6.7 (IC50 between 1 μM and 200 nM)) | C (a value of 1.8 to 2.3) | – | – | – | – | – |
| C=CC(=O)N1CC(COc2cc(-c3ccc(O)c(F)c3)cc3[nH]nc(C)c23)C1 [Compound 18-7] | – | – | – | – | – | C (a value of 1.8 to 2.3) | 10 to 100 nM | < 31.6 nM | 0.1 to 1 nM | – | – |
| C=CC(=O)N1CCC(Oc2nc(-c3ccc(O)cc3)nc3[nH]ncc23)CC1 [Compound 6-12] | – | – | – | – | – | A (a value of 3 or above) | > 100 nM | 31.6 to 200 nM | 0.1 to 1 nM | – | – |
| C=CC(=O)N1CC(COc2nc(-c3ccc(O)cc3)nc3[nH]ncc23)(OC)C1 [Compound 3-76] | – | – | A (a value of 3 or above) | – | – | – | > 100 nM | – | < 0.1 nM | 31.6 to 200 nM | – |
| CN(C)C/C=C/C(=O)N1CC(COc2cc(-c3ccc(O)c(F)c3F)cc3[nH]ncc23)C1 [Compound 3-82] | – | – | B (a value of 2.3 to 3) | – | – | – | 10 to 100 nM | – | < 0.1 nM | < 31.6 nM | – |
| C=CC(=O)N1CC(C)(COc2cc(-c3ccc(O)c(Cl)c3)cc3[nH]ncc23)C1 [Compound 3-10] | – | B (a pKi value between 9 and 10 (Ki between 1 nM and 0.1 nM)) | A (a value of 3 or above) | E (a pKi value of 7 or below (Ki of 100 nM or above)) | – | – | – | – | – | – | A (a pIC50 value≥7.5 (IC50≤32 nM)) |
| C[C@@H]1C[C@H](Oc2cc(-c3ccc(O)cc3)cc3[nH]ncc23)CN1C(=O)/C=C/CN(C)C [Compound 1-10] | – | – | A (a value of 3 or above) | – | – | – | > 100 nM | – | 0.1 to 1 nM | 200 to 1000 nM | – |
| C=CC(=O)N1CCC[C@H](S(=O)(=O)c2cc(-c3ccc(O)cc3)cc3[nH]ncc23)C1 [Compound 12-9] | – | – | – | – | – | A (a value of 3 or above) | > 100 nM | 200 to 1000 nM | 0.1 to 1 nM | – | – |
| C=CC(=O)N1CC(Oc2cc(-c3ccc(O)cc3)nc3[nH]ncc23)C1 [Compound 5-15] | – | A (a pKi value≥10 (Ki≤0.1 nM)) | A (a value of 3 or above) | E (a pKi value of 7 or below (Ki of 100 nM or above)) | – | – | – | – | – | – | B (a pIC50 value between 6.7 (included) and 7.5 (IC50 between 200 nM and 32 nM)) |
| C=CC(=O)N1CCC[C@H](Oc2nc(-c3ccc(O)c(F)c3)nc3[nH]ncc23)C1 [Compound 8-13] | – | B (a pKi value between 9 and 10 (Ki between 1 nM and 0.1 nM)) | – | E (a pKi value of 7 or below (Ki of 100 nM or above)) | C (a pIC50 value between 6 and 6.7 (IC50 between 1 μM and 200 nM)) | A (a value of 3 or above) | – | – | – | – | – |
| CN(C)C/C=C/C(=O)N1CCC(Cc2cc(-c3ccc(O)cc3)cc3[nH]ncc23)CC1 [Compound 12-14] | – | – | – | – | – | C (a value of 1.8 to 2.3) | > 100 nM | 200 to 1000 nM | 0.1 to 1 nM | – | – |
| C=CC(=O)N1CC(C(C)(C)Oc2cc(-c3ccc(O)c(Cl)c3)cc3[nH]ncc23)C1 [Compound 3-26] | – | B (a pKi value between 9 and 10 (Ki between 1 nM and 0.1 nM)) | A (a value of 3 or above) | E (a pKi value of 7 or below (Ki of 100 nM or above)) | – | – | – | – | – | – | B (a pIC50 value between 6.7 (included) and 7.5 (IC50 between 200 nM and 32 nM)) |
| CN(C)C/C=C/C(=O)N1CC[C@H](COc2nc(-c3ccc(O)c(F)c3)cc3[nH]ncc23)C1 [Compound 2-13] | – | B (a pKi value between 9 and 10 (Ki between 1 nM and 0.1 nM)) | B (a value of 2.3 to 3) | E (a pKi value of 7 or below (Ki of 100 nM or above)) | – | – | – | – | – | – | C (a pIC50 value between 6 and 6.7 (IC50 between 1 μM and 200 nM)) |
| C=CC(=O)N1CCCC(C(=O)Nc2cc(-c3ccc(O)cc3)cc3[nH]ncc23)C1 (stereo not drawn) [Compound 12-40] | – | – | – | – | – | B (a value of 2.3 to 3) | > 100 nM | 200 to 1000 nM | 0.1 to 1 nM | – | – |
| C=CC(=O)N1CCC(Oc2cc(-c3ccc(O)cc3)cc3[nH]ncc23)C(F)(F)C1 (stereo not drawn) [Compound 6-8] | – | – | – | – | – | B (a value of 2.3 to 3) | 10 to 100 nM | < 31.6 nM | < 0.1 nM | – | – |
| C=CC(=O)N1CCC(COc2nc(-c3ccc(O)cc3)cc3[nH]ncc23)CC1 [Compound 14-6] | – | A (a pKi value≥10 (Ki≤0.1 nM)) | – | D (a pKi value between 7 and 8 (Ki between 100 nM and 10 nM)) | A (a pIC50 value≥7.5 (IC50≤32 nM)) | B (a value of 2.3 to 3) | – | – | – | – | – |
| C=CC(=O)N1CCC(Oc2cc(-c3ccc(O)cc3)nc3[nH]ncc23)CC1 [Compound 6-11] | – | – | – | – | – | A (a value of 3 or above) | > 100 nM | 31.6 to 200 nM | < 0.1 nM | – | – |
| C=CC(=O)N1CC[C@H]1COc1cc(-c2ccc(O)cc2)cc2[nH]ncc12 [Compound 12-25] | – | – | – | – | – | B (a value of 2.3 to 3) | > 100 nM | 200 to 1000 nM | 0.1 to 1 nM | – | – |
